Data on 16 compounds can be found in US11066369B2, “N-(pyridin-2-yl)pyridine-sulfonamide derivatives and their use in the treatment of disease” (Novartis AG, priority 2016, dated 2021).

The target in one assay is T1, delF508-CFTR (Homo sapiens, UniProt P13569, DEL508-508).
T1 construct: functional activity of the CFTR channel (Chloride ion transport) in patient derived primary human bronchial epithelial cells; host or cells: patient-derived primary human bronchial epithelial cells (delF508-CFTR)
The assay can be described thus: Measurement of delF508-CFTR functional activity in primary human bronchial epithelial cells (HBECs) using Multi-Transepithelial Clamp Circuit (MTECC-24) assay. The class given is cell-based. The conditions noted are these: primary CF HBECs; for MTECC24 CFHBEC- Amax %: test compound added 24h before assay plus potentiator, relative to reference combination (2 μM corrector + 0.5 μM potentiator); for EC50: test compound added 24h before assay, in the presence of potentiator, mean of at least two replicates, read-out: MTECC24 CFHBEC- EC50. The gist of the method: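 Patient-derived primary delF508-CFTR HBECs, differentiated at air-liquid interface ~2 weeks, treated basolaterally with compound for 24 h, then apical and basolateral compound in HEPES pH 7.4 assay medium. Equivalent short-circuit current (Ieq) recorded on MTECC-24 with sequential amiloride, forskolin, potentiator and INH-172; normalized to 0.1% DMSO, EC50 from curve fit.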

Assay [1] deals with T2, horseradish peroxidase (HRP) tagged delF508-CFTR (Homo sapiens, UniProt P13569, DEL508-508).
T2 construct: expressed in transfected cells
In words: Measurement of delF508-CFTR-HRP surface expression in CFBE41o- cells.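 As to DelF508-CFTR-HRP Amax %: percent efficacy relative to reference corrector lumacaftor.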 The class given is cell-based. The conditions noted are these: delF508-CFTR-HRP surface expression, CFBE41o- cells; for Emax: read-out: DelF508-CFTR-HRP Amax %; for EC50: read-out: DelF508-CFTR-HRP EC50. The gist of the method:
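CFBE41o- bronchial epithelial cells stably expressing delF508-CFTR with HRP in the fourth extracellular loop; expression induced 48h with 500 ng/mL doxycycline, then compounds added (top 10 μM, 10-point 3-fold series, ≤0.5% DMSO) for 24h at 37° C. Surface HRP measured by luminescence with cell-impermeant substrate; EC50 from logistic fit of triplicates, plate-normalized to lowest concentration; efficacy also relative to a reference corrector.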

Where a name gives a salt, the structure may show the parent alone.

T2 sequence (P13569 with tags, fused parts or gaps DEL508-508): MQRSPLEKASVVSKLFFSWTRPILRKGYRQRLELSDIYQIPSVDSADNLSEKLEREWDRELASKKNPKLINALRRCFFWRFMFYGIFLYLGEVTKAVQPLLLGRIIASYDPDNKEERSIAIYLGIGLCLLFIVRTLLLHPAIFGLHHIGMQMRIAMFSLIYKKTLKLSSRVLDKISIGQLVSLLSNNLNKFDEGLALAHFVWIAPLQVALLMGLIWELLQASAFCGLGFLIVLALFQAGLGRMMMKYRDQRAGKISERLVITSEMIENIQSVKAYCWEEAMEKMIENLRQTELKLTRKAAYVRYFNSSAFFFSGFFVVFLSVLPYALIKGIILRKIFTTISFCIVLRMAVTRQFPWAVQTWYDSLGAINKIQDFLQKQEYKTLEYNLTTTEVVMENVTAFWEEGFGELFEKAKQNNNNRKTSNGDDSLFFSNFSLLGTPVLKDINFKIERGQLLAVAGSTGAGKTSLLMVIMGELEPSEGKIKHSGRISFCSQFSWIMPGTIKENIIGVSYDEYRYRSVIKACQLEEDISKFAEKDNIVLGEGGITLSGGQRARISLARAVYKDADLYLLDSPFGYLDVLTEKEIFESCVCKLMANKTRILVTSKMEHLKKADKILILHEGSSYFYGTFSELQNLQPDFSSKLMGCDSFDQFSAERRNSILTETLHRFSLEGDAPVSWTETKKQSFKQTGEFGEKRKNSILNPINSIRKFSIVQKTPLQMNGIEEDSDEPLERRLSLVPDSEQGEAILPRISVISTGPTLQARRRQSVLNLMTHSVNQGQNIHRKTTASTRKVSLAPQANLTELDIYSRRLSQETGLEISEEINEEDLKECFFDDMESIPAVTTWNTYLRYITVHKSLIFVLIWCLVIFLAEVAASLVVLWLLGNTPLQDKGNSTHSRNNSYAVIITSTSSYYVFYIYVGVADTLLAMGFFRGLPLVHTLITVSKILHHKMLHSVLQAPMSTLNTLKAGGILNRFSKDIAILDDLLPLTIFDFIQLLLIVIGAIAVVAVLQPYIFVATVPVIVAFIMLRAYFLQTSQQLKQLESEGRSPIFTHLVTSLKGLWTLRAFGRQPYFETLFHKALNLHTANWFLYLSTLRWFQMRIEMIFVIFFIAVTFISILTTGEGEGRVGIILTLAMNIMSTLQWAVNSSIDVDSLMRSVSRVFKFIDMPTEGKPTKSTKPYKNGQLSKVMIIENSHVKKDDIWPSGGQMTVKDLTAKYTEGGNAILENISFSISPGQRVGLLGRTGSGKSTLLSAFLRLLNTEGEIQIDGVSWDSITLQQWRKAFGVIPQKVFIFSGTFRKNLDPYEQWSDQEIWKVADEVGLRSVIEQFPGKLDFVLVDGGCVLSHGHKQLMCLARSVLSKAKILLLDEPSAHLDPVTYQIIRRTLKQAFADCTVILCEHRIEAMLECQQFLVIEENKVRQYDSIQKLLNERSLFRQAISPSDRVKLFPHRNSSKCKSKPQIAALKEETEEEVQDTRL
T1 sequence (P13569 with tags, fused parts or gaps DEL508-508): as above

As to `Cc1cccc(C)c1-c1nc(NS(=O)(=O)c2cccc(N3CCNCC3=O)n2)ccc1Cl` [Example 192, N-(5-chloro-6-(2,6-dimethylphenyl)pyridin-2-yl)-6-(2-oxopiperazin-1-yl)pyridine-2-sulfonamide hydrochloride], at delF508-CFTR, the “MTECC24 CFHBEC- Amax %” value is reported as 42.3% and the EC50 came to 16.1 nM. In assay [1], the Emax was determined as 279% and the EC50 amounted to 2520 nM.
On the same counts, the results for `Cc1ccccc1-c1nc(NS(=O)(=O)c2cccc(N3CCC[C@H](C(=O)O)C3)n2)ccc1C(F)(F)F` [Example 333, (3S)-1-(6-{[6-(2-methylphenyl)-5-(trifluoromethyl)pyridin-2-yl]sulfamoyl}pyridin-2-yl)piperidine-3-carboxylic Acid] are 47.6%, 7.9 nM, 428% and 1950 nM.
On the same counts, the results for `Cc1ccccc1-c1nc(NS(=O)(=O)c2cccc(N3CCC(C)(N)CC3)n2)ccc1C(F)(F)F` [Example 110, 6-(4-amino-4-methylpiperidin-1-yl)-N-(6-(o-tolyl)-5-(trifluoromethyl)pyridin-2-yl)pyridine-2-sulfonamide Hydrochloride] are 65.6%, 28 nM, 372% and 2800 nM.
The matching figures for `Cc1ccc(F)cc1-c1nc(NS(=O)(=O)c2ccnc(N3CCOC[C@H]3C)c2)ccc1Cl` [Example 318, (R)—N-(5-chloro-6-(5-fluoro-2-methylphenyl)pyridin-2-yl)-2-(3-methylmorpholino)pyridine-4-sulfonamide]: 48.7%, 77.6 nM, 318% and 3170 nM.
On to `Cc1ccc(F)cc1-c1nc(NS(=O)(=O)c2cccc(N3CCC(O)C3C(=O)O)n2)ccc1C(F)(F)F` (stereo not shown) [Example 315, 1-(6-(N-(6-(5-fluoro-2-methylphenyl)-5-(trifluoromethyl)pyridin-2-yl)sulfamoyl)pyridin-2-yl)-3-hydroxypyrrolidine-2-carboxylic Acid], for which, on delF508-CFTR, the “MTECC24 CFHBEC- Amax %” value is on record as 60.9% and the EC50 was found to be 52 nM. Besides, in assay [1], the Emax came out at 269% and the EC50 was 3290 nM.
The matching figures for `O=S(=O)(Nc1ccc(C(F)(F)F)c(-c2ccccc2Cl)n1)c1cccc(N2CCNCC2)n1` [Example 150, N-(6-(2-chlorophenyl)-5-(trifluoromethyl)pyridin-2-yl)-6-(piperazin-1-yl)pyridine-2-sulfonamide hydrochloride]: 64.4%, 97.3 nM, 180% and 3510 nM.
On the same counts, the results for `O=C(O)[C@H]1CCCN(c2cccc(S(=O)(=O)Nc3ccc(C(F)(F)F)c(-c4ccccc4C4CCC4)n3)n2)C1` [Example 367, (S)-1-(6-(N-(6-(2-cyclobutylphenyl)-5-(trifluoromethyl)pyridin-2-yl)sulfamoyl)pyridin-2-yl)piperidine-3-carboxylic Acid] are 91.2%, 1.4 nM, 809% and 928 nM.
For the compound `Cc1cccc(C)c1-c1nc(NS(=O)(=O)c2cccc(O[C@H]3CC[C@@H](C(=O)O)CC3)n2)ccc1Cl` [Example 129, (1s,4s)-4-((6-(N-(5-chloro-6-(2,6-dimethylphenyl)pyridin-2-yl)sulfamoyl)pyridin-2-yl)oxy)cyclohexane-1-carboxylic Acid], the “MTECC24 CFHBEC- Amax %” value on delF508-CFTR is on record as 54.8%. Moreover, the EC50 stood at 19.5 nM at delF508-CFTR and 1720 nM in assay [1].
`Cc1cccc(C)c1-c1nc(NS(=O)(=O)c2cccc(N3CCN[C@H](CO)C3)n2)ccc1C(F)(F)F` [Example 173, (S)—N-(6-(2,6-dimethylphenyl)-5-(trifluoromethyl)pyridin-2-yl)-6-(3-(hydroxymethyl)piperazin-1-yl)pyridine-2-sulfonamide Hydrochloride]: at delF508-CFTR, the “MTECC24 CFHBEC- Amax %” value turned out to be 61.4% and the EC50 was found to be 76.9 nM. Further, in assay [1], the Emax came out at 682% and the EC50 stood at 2370 nM.
On the same counts, the results for `Cc1ccccc1-c1nc(NS(=O)(=O)c2cccc(N3CCNC4(CC4)C3)n2)ccc1C(F)(F)F` [Example 302, 6-(4,7-diazaspiro[2.5]octan-7-yl)-N-(6-(o-tolyl)-5-(trifluoromethyl)pyridin-2-yl)pyridine-2-sulfonamide] are 74.4%, 18.3 nM, 530% and 2320 nM.
As for `Cc1ccc(F)cc1-c1nc(NS(=O)(=O)c2cccc(N[C@@H]3[C@H](CO)[C@H]4CC[C@@H]3O4)n2)ccc1Cl` [Example 128, N-(5-chloro-6-(5-fluoro-2-methylphenyl)pyridin-2-yl)-6-(((1S,2R,3R,4R)-3-(hydroxymethyl)-7-oxabicyclo[2.2.1]heptan-2-yl)amino)pyridine-2-sulfonamide], on delF508-CFTR, the “MTECC24 CFHBEC- Amax %” value was 61.9% and the EC50 was found to be 5.3 nM. Besides, in assay [1], the Emax stood at 730% and the EC50 worked out at 2240 nM.
The matching figures for `Cc1ccccc1-c1nc(NS(=O)(=O)c2cccc(N[C@@H]3CCNC3)n2)ccc1C(F)(F)F` [Example 123, (R)-6-(pyrrolidin-3-ylamino)-N-(6-(o-tolyl)-5-(trifluoromethyl)pyridin-2-yl)pyridine-2-sulfonamide Hydrochloride]: 85.2%, 238 nM, 218% and 3150 nM.
On the same counts, the results for `Cc1cccc(C)c1-c1nc(NS(=O)(=O)c2cccc(N3CCN(C)CC3=O)n2)ccc1Cl` [Example 197, N-(5-chloro-6-(2,6-dimethylphenyl)pyridin-2-yl)-6-(4-methyl-2-oxopiperazin-1-yl)pyridine-2-sulfonamide] are 73.9%, 67 nM, 500% and 3650 nM.
Consider `CC(C)c1ccccc1-c1nc(NS(=O)(=O)c2cccc(N3CCC[C@@H](C(=O)O)C3)n2)ccc1C(F)(F)F` [Example 375, (R)-1-(6-(N-(6-(2-isopropylphenyl)-5-(trifluoromethyl)pyridin-2-yl)sulfamoyl)pyridin-2-yl)piperidine-3-carboxylic Acid], for which, at delF508-CFTR, the “MTECC24 CFHBEC- Amax %” value is recorded as 63.5% and the EC50 worked out at 0.682 nM. Moreover, the EC50 in assay [1] turned out to be 1210 nM.
The matching figures for `Cc1ccccc1-c1nc(NS(=O)(=O)c2cccc(N[C@H]3COCC[C@H]3O)n2)ccc1C(F)(F)F` (single isomer, unassigned) [Example 282]: 69.6%, 2.4 nM and 1880 nM.
As to `Cc1ccc(F)cc1-c1nc(NS(=O)(=O)c2cccc(N3CCNCC3)n2)ccc1C(F)(F)F` [Example 152, N-(6-(5-Fluoro-2-Methylphenyl)-5-(Trifluoromethyl)Pyridin-2-yl)-6-(Piperazin-1-yl)Pyridine-2-Sulfonamide Hydrochloride], at delF508-CFTR, the “MTECC24 CFHBEC- Amax %” value was found to be 62.5% and the EC50 was 57.8 nM. In assay [1], the Emax was found to be 332% and the EC50 came to 2680 nM.
